In the NIST ThermoML archive (doi:10.1021/je060490w):
Values joined by “and” are separate entries in the source; they are usually repeats but may differ in a detail not shown here. Equal entries are not always repeated. ± gives the expanded uncertainty stated by the source.

Assays:
[1] = for surface tension liquid-gas: Pendant drop shape; for mass density: 101.33 kPa, Liquid
[2] = xn = mol fraction of the nth substance listed; settings: Pendant drop shape

Cc1cc(C)cc(C)c1 [1,3,5-trimethylbenzene]
[1]
Settings	mass density [kg/m3]	surface tension liquid-gas [mN/m]
298.15 K	861.12 ± 0.59	28.05 ± 0.31
308.15 K	852.94 ± 0.61	27.21 ± 0.3
313.15 K	848.82 ± 0.62	26.78 ± 0.3

COC(C)(C)OC [3,3-dimethyl-2,4-dioxapentane] + Cc1ccc(C)c(C)c1
[2]
Settings	surface tension liquid-gas [mN/m]
298.15 K, x1 = 0.0523	28.69 ± 0.32
298.15 K, x1 = 0.0998	28.17 ± 0.32
298.15 K, x1 = 0.1497	27.62 ± 0.31
298.15 K, x1 = 0.1996	27.12 ± 0.31
298.15 K, x1 = 0.2517	26.6 ± 0.3
298.15 K, x1 = 0.3009	26.13 ± 0.3
298.15 K, x1 = 0.3494	25.68 ± 0.3
298.15 K, x1 = 0.3987	25.24 ± 0.29
298.15 K, x1 = 0.4502	24.79 ± 0.29
298.15 K, x1 = 0.4994	24.37 ± 0.29
298.15 K, x1 = 0.5498	23.95 ± 0.28
298.15 K, x1 = 0.5996	23.55 ± 0.28
298.15 K, x1 = 0.6508	23.17 ± 0.28
298.15 K, x1 = 0.6997	22.82 ± 0.27
298.15 K, x1 = 0.7498	22.51 ± 0.27
298.15 K, x1 = 0.7992	22.24 ± 0.27
298.15 K, x1 = 0.8508	22 ± 0.27
298.15 K, x1 = 0.8997	21.79 ± 0.26
298.15 K, x1 = 0.9489	21.62 ± 0.26
298.15 K, x1 = 1	21.46 ± 0.26
308.15 K, x1 = 0.0515	27.59 ± 0.31
308.15 K, x1 = 0.0998	27.02 ± 0.31
308.15 K, x1 = 0.1499	26.47 ± 0.3
308.15 K, x1 = 0.2001	25.95 ± 0.3
308.15 K, x1 = 0.2475	25.5 ± 0.3
308.15 K, x1 = 0.302	24.97 ± 0.29
308.15 K, x1 = 0.3512	24.53 ± 0.29
308.15 K, x1 = 0.3995	24.12 ± 0.28
308.15 K, x1 = 0.4485	23.66 ± 0.28
308.15 K, x1 = 0.4989	23.23 ± 0.28
308.15 K, x1 = 0.5542	22.77 ± 0.27
308.15 K, x1 = 0.5998	22.4 ± 0.27
308.15 K, x1 = 0.6518	22.02 ± 0.27
308.15 K, x1 = 0.6987	21.69 ± 0.26
308.15 K, x1 = 0.7455	21.44 ± 0.26
308.15 K, x1 = 0.7962	21.11 ± 0.26
308.15 K, x1 = 0.851	20.86 ± 0.26
308.15 K, x1 = 0.8973	20.71 ± 0.26
308.15 K, x1 = 0.9456	20.55 ± 0.26
308.15 K, x1 = 1	20.43 ± 0.25
313.15 K, x1 = 0.0506	27.03 ± 0.31
313.15 K, x1 = 0.0996	26.42 ± 0.3
313.15 K, x1 = 0.1509	25.86 ± 0.3
313.15 K, x1 = 0.1994	25.36 ± 0.29
313.15 K, x1 = 0.2511	24.87 ± 0.29
313.15 K, x1 = 0.3032	24.38 ± 0.29
313.15 K, x1 = 0.3475	23.95 ± 0.28
313.15 K, x1 = 0.3981	23.52 ± 0.28
313.15 K, x1 = 0.4501	23.07 ± 0.27
313.15 K, x1 = 0.5	22.66 ± 0.27
313.15 K, x1 = 0.5487	22.25 ± 0.27
313.15 K, x1 = 0.5993	21.84 ± 0.26
313.15 K, x1 = 0.6504	21.45 ± 0.26
313.15 K, x1 = 0.6993	21.12 ± 0.26
313.15 K, x1 = 0.7486	20.8 ± 0.26
313.15 K, x1 = 0.7987	20.51 ± 0.25
313.15 K, x1 = 0.8417	20.31 ± 0.25
313.15 K, x1 = 0.8929	20.12 ± 0.25
313.15 K, x1 = 0.9487	19.97 ± 0.25
313.15 K, x1 = 1	19.91 ± 0.25

Cc1ccc(C)c(C)c1 [1,2,4-trimethylbenzene]
[1]
Settings	mass density [kg/m3]	surface tension liquid-gas
298.15 K	871.71 ± 0.59	29.3 ± 0.33 mN/m
308.15 K	863.68 ± 0.61	28.24 ± 0.32 mN/m
313.15 K	859.58 ± 0.62	27.67 ± 0.31 mN/m and 27.71 ± 0.31 mN/m
